Consider 16 compounds from patent US11912723B2, “KRAS modulators and uses thereof” (Quanta Therapeutics, Inc., priority 2022, dated 2024).

Assay [1] concerns the target T1, GST-tagged KRAS G12D (2-169) (Homo sapiens, UniProt P01116, G12D).
T1 construct: GST-tagged KRAS^G12D (2-169, Reaction Biology, MSC-11-539); purchased Reaction Biology MSC-11-539 (KRAS G12D); MSC-11-502 (SOS1cat)
In words: Nucleotide exchange assay (NEA), HTRF of SOS-mediated GTP-DY-647P1 binding. To be noted: 5 nM GST-KRAS G12D, 20 nM SOScat, 150 nM GTP; compound 1 h at RT. It is filed as biochemical. The method, boiled down:
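After 1 h RT preincubation of compound with KRAS, SOS1cat (20 nM final) and fluorescent GTP analog (150 nM) were added to 5 nM KRAS; HTRF (anti-GST Tb donor) followed at RT for up to 90 min. % inhibition relative to DMSO and no-SOS1 blank, 4-parameter curve fit.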
(TR-FRET usually uses a lanthanide donor and a delayed reading to cut background.)

Assay [2] has as its system AGS (KRAS G12D) cells, phospho-ERK. Kind of assay: pERK In Cell Western (ICW) assay (Method B). In kind it is cell-based. The conditions noted are these: 3 hours. As for the experimental part:
pERK ICW is a high throughput screening assay to evaluate the cellular potency of mutant KRAS small molecule inhibitors. KRAS mutant cell line AGS (KRAS^G12D) were purchased from ATCC and maintained in DMEM and RPMI medium supplemented with 10% fetal bovine serum and Penicillin/Streptomycin.
Cells grown in exponential phase were trypsinized, resuspended in fresh media, and viable cells were counted using a cell counter with Trypan Blue (BioRad TC20). Cells were seeded into 384-well plate (Greiner 781091) at density of 5,000 cells/well for AGS and allowed to grow overnight in a 37° C. CO2 incubator. The next day, compounds were dispensed into wells with a ½ log, 10-point serial dilution and top concentration of 10 μM using Tecan D300e dispenser and incubated for 3 hours in a 37° C. CO2 incubator. Cells were then fixed with paraformaldehyde (Electron Microscopy Sciences, 15710, 4% final concentration) for 30 min, permeabilized with wash buffer (1×PBS+0.1% Triton X-100) for 30 min and blocked with Odyssey blocking buffer (Li—COR 927-70001) for 1 hour, all at room temperature (RT). Phospho-ERK antibody (CST 4370L) was diluted 1:500 in Odyssey blocking+0.2% Tween 20 and incubated with cells overnight at 4° C. The next day, plates were washed 5× with wash buffer, incubated with IRDye 800 CW, Goat anti-Rabbit secondary antibody (Li—COR 926-32211, 1:500) and DRAQ5 (CST 4084L, 1:5,000) diluted in Odyssey blocking+0.2% Tween 20 for 1 hour, washed 5×, and imaged on an Odyssey CLx imaging system.
For data analysis, signal intensities from 800 (phosphor-ERK) and 700 (DRAQ5) channels were extracted, and phospho-ERK signals were normalized to DRAQ5 signals for each well and percent of DMSO control values were computed. Data were then imported into Graphpad Prism to compute half-maximal inhibitory concentrations (IC50) using a 4-parameter variable slope model. Z-factor for each plate was computed from signals derived from wells treated with either DMSO or 5 μM of Trametinib. AGS pERK ICW (Method B) IC50 (uM) values of selected compounds are depicted in Table 2 with compounds having a value 0.001 uM to 0.01 uM as ++++; >0.01 uM to 0.1 uM as +++; >0.1 uM to 1 uM as ++; 1 uM to 10 uM as + and >10 uM as NA.

Some results are limits rather than exact numbers.

T1 sequence (P01116 2-169 isoform P01116-2 G12D): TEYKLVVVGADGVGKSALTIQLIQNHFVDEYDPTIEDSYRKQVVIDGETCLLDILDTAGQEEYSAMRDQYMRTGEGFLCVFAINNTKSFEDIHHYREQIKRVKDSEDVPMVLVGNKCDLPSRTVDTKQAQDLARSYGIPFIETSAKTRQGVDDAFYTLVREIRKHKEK

As usually defined, the IC50 is the concentration at which inhibition is half-maximal. As for `OC1CCCN(c2nc(OC[C@@]34CCCN3C[C@H](F)C4)nc3c2COC2(CCc4c(Cl)cccc42)C3)CC1` (mixture of isomers) [Compound 6, 1-[4′-chloro-2-[[rac-(2R,8S)-2-fluoro-1,2,3,5,6,7-hexahydropyrrolizin-8-yl]methoxy]spiro[5,8-dihydropyrano[4,3-d]pyrimidine-7,1′-indane]-4-yl]azepan-4-ol], the IC50 in assay [1] was 1000 to 20000 nM; in assay [2] (Homo sapiens) it was above 10 µM.
As to `CN(C)C(=O)c1cc2n(n1)CCCN(c1nc(OC[C@@]34CCCN3C[C@H](F)C4)nc3c1COC1(CCCc4c(Cl)cc(O)cc41)C3)C2` (mixture of isomers) [Compound 43, 5-[5′-chloro-7′-hydroxy-2-[[rac-(2R,8S)-2-fluoro-1,2,3,5,6,7-hexahydropyrrolizin-8-yl]methoxy]spiro[5,8-dihydropyrano[4,3-d]pyrimidine-7,1′-tetralin]-4-yl]-N,N-dimethyl-4,6,7,8-tetrahydropyrazolo[1,5-a][1,4]diazepine-2-carboxamide], the IC50 in assay [1] is 10 to 100 nM; in assay [2] (Homo sapiens), 1 to 10 µM.
For the compound `C=C1CN2CCCC2(COc2nc3c(c(N4CCCn5nc(C(=O)N(C)C)c(Cl)c5C4)n2)CO[C@@]2(CCc4c(Cl)cccc42)C3)C1` (mixture of isomers) [Compound 54, 3-chloro-N,N-dimethyl-5-[rac-(7S)-4′-chloro-2-[(6-methylene-2,3,5,7-tetrahydro-1H-pyrrolizin-8-yl)methoxy]spiro[5,8-dihydropyrano[4,3-d]pyrimidine-7,1′-indane]-4-yl]-4,6,7,8-tetrahydropyrazolo[1,5-a][1,4]diazepine-2-carboxamide], the IC50 was below 10 nM in assay [1] and 0.1 to 1 µM in assay [2] (Homo sapiens).
For `Oc1ccc2c(c1)C1(CCC2)Cc2nc(OC[C@@]34CCCN3C[C@H](F)C4)nc(N3CCCCCC3)c2CO1` (single isomer, unassigned) [Compound 7], the IC50 was 1000 to 20000 nM in assay [1] and above 10 µM in assay [2] (Homo sapiens).
For `Oc1ccc2c(c1)C1(CCC2)Cc2nc(OC[C@@]34CCCN3C[C@H](F)C4)nc(N3CCCCCC3)c2CO1` (single isomer, unassigned) [Compound 8], the IC50 in assay [1] was 100 to 1000 nM; in assay [2], above 10 µM.
Consider `O=C1NC(=O)C2(CCCN(c3nc(OC[C@@]45CCCN4C[C@H](F)C5)nc4c3COC3(CCc5c(Cl)cccc53)C4)C2)N1` (single isomer, unassigned) [Compound 24A, (5*)-9-[(7*)-4′-chloro-2-[[(2R,8S)-2-fluoro-1,2,3,5,6,7-hexahydropyrrolizin-8-yl]methoxy]spiro[5,8-dihydropyrano[4,3-d]pyrimidine-7,1′-indane]-4-yl]-1,3,9-triazaspiro[4.5]decane-2,4-dione], for which the IC50 in assay [1] was 10 to 100 nM; in assay [2] (Homo sapiens), 1 to 10 µM.
Regarding `F[C@H]1CN2CCC[C@@]2(COc2nc3c(c(N4CCCCCC4)n2)COC2(CCc4c(Cl)cccc42)C3)C1` (stereo partly drawn) [Compound 1, 4′-(azepan-1-yl)-4-chloro-2′-(((2R,7aS)-2-fluorotetrahydro-1H-pyrrolizin-7a(5H)-yl)methoxy)-2,3,5′,8′-tetrahydrospiro[indene-1,7′-pyrano[4,3-d]pyrimidine]], the results for the IC50 in assay [1] and in assay [2] (Homo sapiens) were 1000 to 20000 nM and above 10 µM, respectively.
The corresponding values for `F[C@H]1CN2CCC[C@@]2(COc2nc3c(c(N4C[C@H]5CC[C@@H](C4)N5)n2)COC2(CCc4c(Cl)cccc42)C3)C1` (stereo partly drawn) [Compound 2, 4′-((1R,5S)-3,8-diazabicyclo[3.2.1]octan-3-yl)-4-chloro-2′-(((2R,7aS)-2-fluorotetrahydro-1H-pyrrolizin-7a(5H)-yl)methoxy)-2,3,5′,8′-tetrahydrospiro[indene-1,7′-pyrano[4,3-d]pyrimidine]] are 10 to 100 nM and 1 to 10 µM.
`OC1CCCN(c2nc(OC[C@@]34CCCN3C[C@H](F)C4)nc3c2COC2(CCCc4ccc(Br)cc42)C3)CC1` (stereo partly drawn) [Compound 4, 1-[7′-bromo-2-[[(2R,8S)-2-fluoro-1,2,3,5,6,7-hexahydropyrrolizin-8-yl]methoxy]spiro[5,8-dihydropyrano[4,3-d]pyrimidine-7,1′-tetralin]-4-yl]azepan-4-ol]: the IC50 in assay [1] was 1000 to 20000 nM; in assay [2] (Homo sapiens), above 10 µM.
In the case of `F[C@H]1CN2CCC[C@@]2(COc2nc3c(c(N4CCCCCC4)n2)COC2(CCCc4c(Br)cccc42)C3)C1` (stereo partly drawn) [Compound 5, 4-(azepan-1-yl)-5′-bromo-2-[[(2R,8S)-2-fluoro-1,2,3,5,6,7-hexahydropyrrolizin-8-yl]methoxy]spiro[5,8-dihydropyrano[4,3-d]pyrimidine-7,1′-tetralin]], the results for the IC50 in assay [1] and in assay [2] (Homo sapiens) were 1000 to 20000 nM and above 10 µM, respectively.
Consider `F[C@H]1CN2CCC[C@@]2(COc2nc3c(c(N4C[C@H]5CC[C@@H](C4)N5)n2)COC2(CCCc4c(Br)cccc42)C3)C1` (stereo partly drawn) [Compound 10, 5′-bromo-4-(3,8-diazabicyclo[3.2.1]octan-3-yl)-2-[[(2R,8S)-2-fluoro-1,2,3,5,6,7-hexahydropyrrolizin-8-yl]methoxy]spiro[5,8-dihydropyrano[4,3-d]pyrimidine-7,1′-tetralin]], for which the IC50 in assay [1] was 10 to 100 nM; in assay [2] (Homo sapiens) it was above 10 µM.
As to `Oc1ccc2c(c1)C1(CCC2)Cc2nc(OC[C@@]34CCCN3C[C@H](F)C4)nc(N3CCCC(O)CC3)c2CO1` (stereo partly drawn) [Compound 14, 2-[[(2S,8R)-2-fluoro-1,2,3,5,6,7-hexahydropyrrolizin-8-yl]methoxy]-4-(4-hydroxyazepan-1-yl)spiro[5,8-dihydropyrano[4,3-d]pyrimidine-7,4′-tetralin]-6′-ol], the IC50 in assay [1] was 1000 to 20000 nM; in assay [2] (Homo sapiens) it was above 10 µM.
In the case of `OC1CCCN(c2nc(OC[C@@]34CCCN3C[C@H](F)C4)nc3c2COC2(CCCc4c(Cl)cccc42)C3)CC1` (stereo partly drawn) [Compound 15, 1-[5′-chloro-2-[[(2R,8S)-2-fluoro-1,2,3,5,6,7-hexahydropyrrolizin-8-yl]methoxy]spiro[5,8-dihydropyrano[4,3-d]pyrimidine-7,1′-tetralin]-4-yl]azepan-4-ol], the IC50 in assay [1] was 1000 to 20000 nM; in assay [2] (Homo sapiens), above 10 µM.
Take `N#CC1CCCN(c2nc(OC[C@@]34CCCN3C[C@H](F)C4)nc3c2COC2(CCc4c(Cl)cccc42)C3)CC1` (stereo partly drawn) [Compound 16, 1-(4-chloro-2′-(((2R,7aS)-2-fluorotetrahydro-1H-pyrrolizin-7a(5H)-yl)methoxy)-2,3,5′,8′-tetrahydrospiro[indene-1,7′-pyrano[4,3-d]pyrimidin]-4′-yl)azepane-4-carbonitrile]: the IC50 in assay [1] was 1000 to 20000 nM; in assay [2] (Homo sapiens), above 10 µM.
Taken in the same sequence, the figures for `OC1CCCN(c2nc(OC[C@@]34CCCN3C[C@H](F)C4)nc3c2COC2(CCCc4ccc(Cl)cc42)C3)CC1` (stereo partly drawn) [Compound 17, 1-(7-chloro-2′-(((2R,7aS)-2-fluorotetrahydro-1H-pyrrolizin-7a(5H)-yl)methoxy)-3,4,5′,8′-tetrahydro-2H-spiro[naphthalene-1,7′-pyrano[4,3-d]pyrimidin]-4′-yl)azepan-4-ol] were 1000 to 20000 nM and 1 to 10 µM.
For `F[C@H]1CN2CCC[C@@]2(COc2nc3c(c(N4CCC=CCC4)n2)COC2(CCc4c(Cl)cccc42)C3)C1` (stereo partly drawn) [Compound 18, 4′-chloro-2-[[(2R,8S)-2-fluoro-1,2,3,5,6,7-hexahydropyrrolizin-8-yl]methoxy]-4-(2,3,6,7-tetrahydroazepin-1-yl)spiro[5,8-dihydropyrano[4,3-d]pyrimidine-7,1′-indane]], the IC50 in assay [1] was above 20000 nM; in assay [2] (Homo sapiens), above 10 µM.
